Laboratory results from BigSolDB 2.1.

COc1c(NS(=O)(=O)c2ccc(C)cc2)cc(-c2ccc3ncnc(N4CCOCC4)c3c2)cc1C(N)=O
solubility (mole fraction)
Conditions | 288.15 K | 293.15 K | 298.15 K | 303.15 K | 308.15 K | 313.15 K | 318.15 K | 323.15 K | 328.15 K
in acetone | 0.000635 | 0.000707 | 0.000798 | 0.001 | 0.00115 | 0.00141 | 0.00185 | – | –
in chloroform | 0.0027 | 0.00314 | 0.00346 | 0.00398 | 0.00466 | 0.00547 | 0.00637 | 0.00717 | 0.00767
in ethyl acetate | 0.000286 | 0.000294 | 0.000302 | 0.000329 | 0.000357 | 0.000412 | 0.00045 | 0.000535 | 0.000656
in methanol | 0.000832 | 0.000873 | 0.000919 | 0.00105 | 0.00123 | 0.00151 | 0.00183 | 0.00217 | 0.00267
in toluene | 2.41e-05 | 2.9e-05 | 3.32e-05 | 3.98e-05 | 4.9e-05 | 5.89e-05 | 7.91e-05 | 0.000104 | 0.00013
in water | 8.31e-07 | 1.19e-06 | 1.62e-06 | 2.07e-06 | 2.53e-06 | 2.91e-06 | 3.2e-06 | 3.47e-06 | 3.75e-06

COc1c(NS(=O)(=O)c2ccc(F)cc2)cc(-c2ccc3ncnc(N4CCOCC4)c3c2)cc1C(N)=O
solubility (mole fraction)
Conditions | 288.15 K | 293.15 K | 298.15 K | 303.15 K | 308.15 K | 313.15 K | 318.15 K | 323.15 K | 328.15 K
in acetone | 0.000317 | 0.000317 | 0.000352 | 0.000419 | 0.000459 | 0.000526 | 0.000592 | – | –
in chloroform | 0.000145 | 0.000158 | 0.000165 | 0.000188 | 0.000223 | 0.000258 | 0.000303 | 0.00039 | 0.000495
in ethyl acetate | 9.51e-05 | 0.000101 | 0.000114 | 0.000128 | 0.00015 | 0.000171 | 0.000196 | 0.00022 | 0.000239
in methanol | 0.000238 | 0.000301 | 0.00043 | 0.000428 | 0.000613 | 0.00078 | 0.00102 | 0.00105 | 0.00125
in toluene | 1.05e-05 | 1.05e-05 | 1.05e-05 | 1.13e-05 | 1.31e-05 | 1.53e-05 | 1.67e-05 | 1.83e-05 | 2.14e-05
in water | 5.21e-07 | 8.05e-07 | 9.14e-07 | 1.05e-06 | 1.16e-06 | 1.37e-06 | 1.5e-06 | 1.98e-06 | 2.44e-06

COc1c(NS(=O)(=O)c2ccc(F)cc2)cc(-c2ccc3nccc(N4CCOCC4)c3c2)cc1C(N)=O
solubility (mole fraction)
Conditions | 288.15 K | 293.15 K | 298.15 K | 303.15 K | 308.15 K | 313.15 K | 318.15 K | 323.15 K | 328.15 K
in acetone | 0.000608 | 0.000638 | 0.000704 | 0.000817 | 0.000941 | 0.00102 | 0.00115 | – | –
in chloroform | 5.21e-05 | 5.44e-05 | 5.86e-05 | 6.66e-05 | 7.72e-05 | 9.58e-05 | 0.000121 | 0.000149 | 0.000188
in ethyl acetate | 9.85e-05 | 0.000115 | 0.000127 | 0.000138 | 0.00016 | 0.000182 | 0.000187 | 0.000183 | 0.000183
in methanol | 0.000259 | 0.000298 | 0.000338 | 0.000398 | 0.000473 | 0.000518 | 0.000666 | 0.000829 | 0.000977
in toluene | 5.82e-06 | 6.02e-06 | 6.59e-06 | 7.29e-06 | 7.86e-06 | 9.04e-06 | 1.03e-05 | 1.23e-05 | 1.4e-05
in water | 3.54e-07 | 5.68e-07 | 7.36e-07 | 8.18e-07 | 9.22e-07 | 1.08e-06 | 1.28e-06 | 1.47e-06 | 1.75e-06
